Measurements published in ChEMBL document CHEMBL5344474, “Molecular editing of NSC-666719 enabling discovery of benzodithiazinedioxide-guanidines as anticancer agents” (RSC Med Chem, 2024).

Columns and labels:
MCF7 [1] = assay: Antiproliferative activity against human MCF7 cells incubated for 72 hrs by MTT assay; settings: MCF7, 72 h
MDA-MB-231 = assay: Antiproliferative activity against human MDA-MB-231 cells incubated for 72 hrs by MTT assay; settings: MDA-MB-231, 72 h
HCT-116 = assay: Antiproliferative activity against human HCT-116 cells incubated for 72 hrs by MTT assay; settings: HCT-116, 72 h
SCC-9 = assay: Antiproliferative activity against human SCC-9 cells incubated for 72 hrs by MTT assay; settings: SCC-9, 72 h
[2] = Cytotoxicity against HEK293 cells incubated for 72 hrs by MTT assay; settings: human
[3] = Selectivity index, ratio of IC50 for HEK293 cells to IC50 for human MCF7 cells; settings: HEK293 cells versus MCF7 cells
[4] = Selectivity index, ratio of IC50 for HEK293 cells to IC50 for human MDA-MB-231 cells; settings: HEK293 cells versus MDA-MB-231 cells
[5] = Selectivity index, ratio of IC50 for HEK293 cells to IC50 for human HCT-116 cells; settings: HEK293 cells versus HCT-116 cells
MCF7 [6] = assay: cells; settings: Homo sapiens, MCF7, 48 h, read-out: Activity
Description: Induction of apoptosis in human MCF7 cells assessed as viable cells at 0.5 uM incubated for 48 hrs by Annexin-V/FITC staining based flow cytometry analysis (Rvb = 99.3 +/- 0.12 %)

MCF7 [7] = assay: cells; settings: Homo sapiens, MCF7, 48 h, read-out: Activity; remark: listed apart in the source
Description: Induction of apoptosis in human MCF7 cells assessed as viable cells at 2 uM incubated for 48 hrs by Annexin-V/FITC staining based flow cytometry analysis (Rvb = 99.3 +/- 0.12 %)

MCF7 [8] = assay: cells; settings: Homo sapiens, MCF7, 48 h, read-out: Activity; remark: listed apart in the source
Description: Induction of apoptosis in human MCF7 cells assessed as viable cells at 0.8 uM incubated for 48 hrs by Annexin-V/FITC staining based flow cytometry analysis (Rvb = 99.3 +/- 0.12 %)

- IC50 (MCF7 [1]): 0.8 µM
- IC50 (MDA-MB-231): 2.1 µM
- IC50 (HCT-116): 2.8 µM
Compound: Cc1cc2c(cc1Cl)SC(/N=C(/N)Nc1ccnc3cc(Cl)ccc13)=NS2(=O)=O
- IC50 (SCC-9): 1 µM
- IC50 at 72 h [2]: 65 µM
- selectivity ratio [3]: > 65
- selectivity ratio [4]: > 65
- selectivity ratio [5]: > 65
- viability at 0.5 µM (MCF7 [6]): 64.9%
- viability at 2 µM (MCF7 [7]): 14.8%
- viability at 0.8 µM (MCF7 [8]): 27.4%
